These are literature values, as cited in patent publication US20030133903A1, “Compositions for treatment of prostate cancers and methods of making and using the same” (priority 2001, published 2003).

SMILES strings stand for the structures.

The data set concerns LNCaP cell line. Conditions: already published reports.

Turning to `CC(=O)O[C@H]1C(=O)[C@@]2(C)[C@H]([C@H](OC(=O)c3ccccc3)[C@]3(O)C[C@H](OC(=O)[C@H](O)[C@@H](NC(=O)c4ccccc4)c4ccccc4)C(C)=C1C3(C)C)[C@]1(OC(C)=O)CO[C@@H]1C[C@@H]2O` [paclitaxel], the IC50 entry is reported as “low nM or sub nM”.
